The record followed here is US7115623B2, “PDE IV inhibitors” (Aska Pharmaceuticals Co., Ltd., priority 2001, dated 2006).

For series [1], the system named is actively sensitized guinea pigs. As to the kind of experiment: Inhibition of antigen-induced immediate asthmatic response (airway resistance, Konzett-Rossler method). As to conditions: Cavia porcellus; orally, 60 minutes prior to antigen-challenge, ovalbumin-sensitized guinea pigs, Probit method. The class given is in vivo, Male Hartley outbred guinea pigs. On the procedure: Male Hartley outbred guinea pigs were sensitized by administering intraperitoneally physiological saline (0.5 ml) containing ovalbumin (1 mg, antigen) and 5×10^9 inactivated Bordetella pertussis dead cells (adjuvant). Eleven to thirteen days after the first sensitization, 0.05 ml of an ovalbumin solution (1 mg/ml) (ovalbumin is dissolved in physiological saline) was administered to the lateroabdominal region of each guinea pig intracutaneously. An establishment of sensitization was checked relying on cutaneous reaction. Only guinea pigs wherein significant reddening responses occurred 5 to 10 minutes later were employed in the next measurement test for airway resistance.
The guinea pigs (3 animals per group) actively sensitized in the above step (1) were employed to measure for their airway pressure according to Konzett-Rossler method (Arch. Exp. Path. Pharmakol., 195, 71 (1940)).
Thirteen days after the final sensitization, guinea pigs fasted overnight, and were on the next day anesthetized with a pentobarbital solution (30 mg/1.2 ml/kg, dissolved in physiological saline, intraperitoneal administration). After the guinea pigs were fixed in a supine position, their trachea was incised followed by insertion with one port of a 4-port cannula. Among the remaining 3 ports, 2 ports were connected to an artificial respirator (Model 683, Harvard). The animals were ventilated with 10 ml/kg of air per ventilation at a rate of 60 beats/min via the artificial respirator from the cannula. One port remainder was connected to a respiratory amplifier (AR-601G, Nihon Kohden, Japan) via an airflow resistance tube (TV-241T, Nihon Kohden, Japan) and a differential pressure transducer (TP-602T, Nihon Kohden, Japan) connected with a control box (RY-111S, Nihon Kohden, Japan). From a catheter inserted into a left carotid artery, blood pressures were monitored with a blood pressure measurement unit (AP641G, NEC Corp., Japan) via a blood pressure transducer (TP-300T, Nihon Kohden, Japan), and heart rates were recorded on a thermal recorder (WT-685G, Nihon Kohden, Japan), relying on blood pressure pulse waves after being led to a cardiograph unit (AT601G, Nihon Kohden, Japan).
After airway pressure became stable, an ovalbumin solution. (1 mg/ml, dissolved in physiological saline) was administered at a dose of 1 ml/kg via a tube with which the right jugular vein of guinea pigs was cannulated.
Each test compound was suspended in 0.5% CMC—Na solution and administered orally with an oral sound at a dose of 0.03 to 20 mg/2 ml/kg 60 minutes prior to the antigen-challenge. Control groups received only 0.5% CMC—Na solution in an equivalent amount. The pentobarbital-anesthetization and tracheal incision were conducted 30 minutes prior to the antigen-challenge.
Each percent reduction of increase in airway resistance (each test compound-administered group versus control group) was calculated according to the equation given below. ED50 was obtained by Probit method.

Series [2] concerns ICR mice. As to the kind of experiment: Toxicology study. The class given is in vivo. The note with it: oral 300 mg/10 ml/kg. Here is the method: Each Compound (Example Nos. 7 and 8) was administered orally to ICR mice (7 animals per group) as a test compound. […] Each test compound was suspended in 0.5% CMC—Na solution and given orally to the animal at a dose of 300 mg/10 ml/kg.

Series [3] relates to PDE IV isozymes separated from U937 culture cells. The series is described as follows: PDE IV inhibition ([3H]-cAMP hydrolysis). In kind it is biochemical. As to conditions: cAMP 1 μM as substrate, 30° C., 20 minutes, Probit method. Here is the method:
PDE IV isozymes as used herein were separated from U937 culture cells by using an anion exchange chromatography. Type IV PDE isozyme was admixed with ethylene glycol (EG) to adjust the final EG concentration to 30%, then stored at −20° C. and diluted when used. The enzymatic activity for PDE IV was measured using cAMP as a substrate.
Each test compound was dissolved in DMSO to adjust the final concentration to 1% (2.5 μl/tube). Incubation buffer solution (pH7.5): • Tris-HCl (50 mM), magnesium chloride (6 mM), dithiothreitol (2.5 mM), 5-nucleotidase (4 μg/ml), bovine serum albumin (0.23 mg/ml), and cAMP (1 μM).
A mixture of the aforementioned test compound solution and the buffer solution was incubated at 30° C. for 20 minutes. The reaction was quenched by admixing with 1 ml of anion exchange resin slurry (AG1-X8, 200–400 meshes, chloride form; Bio-Rad) to absorb unreacted substrates. After the reaction stopped, the mixture was centrifuged at 800×g for 10 minutes, and the resulting supernatant was collected with vials in 250 μl aliquots. To each vial was added 5 ml of ACS-II (scintillator, Amersham). The radioactivity was measured with a liquid scintillator counter for [^3H]-adenosine and set as the PDE IV activity.

Series [4] concerns Male Marshall ferrets. As to the kind of experiment: Emetic action. The class given is in vivo. As to conditions: oral, observed within 12 hours. Here is the method: Male Marshall ferrets (each group consisting of 3 animals) as used herein fasted overnight. On the next day, a suspension of each test compound in 0.5% CMC—Na solution was administered orally to the animals. […] Next, each maximum tolerance dose against emesis was obtained. SB207499 was used for the reference compound in this assay.

The test system of series [5] is TNF-α production. As to the kind of experiment: Inhibition of TNF-α production in galactosamine- and LPS-stimulation. The class given is in vivo, C3H/HeN mice. The note with it: Mus musculus; oral, 1 hour before i.v. galactosamine 800 mg/kg and LPS 5 μg/kg; serum TNF-α by ELISA 1 hour later. Here is the method:
A suspension of each test compound in 0.5% CMC—Na solution was administered orally to C3H/HeN mice at a dose of 0.10 to 10 mg/kg. One hour later, the animals received intravenously galactosamine at a dose of 800 mg/kg and LPS at a dose 5 μg/kg to raise the induction of TNF-α production. One hour later after the galactosamine- and LPS-administration, amounts of TNF-α in serum samples were measured by ELISA.
(In an ELISA, binding on a coated surface is turned into a signal by an enzyme label.)

Usually ED50 stands for the dose that gives a 50% effect, or the effect in half of the subjects. As usually defined, the IC50 is the concentration that inhibits the measured activity by half.

`Nc1cccc(-n2c(=O)c(CCCc3ccncc3)cc3cccnc32)c1` [Example No. 7, 1-(3-Aminophenyl)-3-[3-(pyridin-4-yl)propyl]-1,8-naphthyridin-2(1H)-one]: the ED50 in series [1] is 1.1 mg/kg. Further, in series [2], the Body weight gain result is recorded as “No reduction of body weight gains was observed”, the Mortality result was “None of the animals were died” and the “Other parameters (general health conditions)” value is listed as “no abnormality was observed”. Further, the IC50 in series [3] was 0.23 µM. In series [4] (dose = ED50 of Assay Example 2), the “Emetic actions at asthmatic response-inhibitory ED50 level” value was “no observation for emetic actions”. It took a dose of 0.45 mg/kg to reach the 50% effect level in series [5] (ED50).

Turning to `COc1ccc([C@]2(C#N)CC[C@@H](C(=O)O)CC2)cc1OC1CCCC1` [SB207499, cis-4-cyano-4-[3-(cyclopentyloxy)-4-methoxyphenyl]cyclohexane-1-carboxylic acid, reference compound], the median effective dose (ED50) in series [1] is 20 mg/kg; in series [5], 0.9 mg/kg. Besides, the IC50 in series [3] is 0.03 µM. The “Emetic activity at a half of the ED50 dose” value in series [4] (a half of the ED50 dose of Assay Example 2) is “elicitation of emetic activity has been found”.
